Like-named read-outs stand apart in the source and are kept apart here.
Key:
ROCK1 = target: T1, ROCK1 (Homo sapiens, UniProt Q13464); assay: Rho kinase inhibition assay (IMAP), ROCK1; format: biochemical
T1 construct: purchased Upstate/Chemicon 14-601
Experimental: Following the pre-incubation, 10 μM ATP was added to initiate the reaction. After 60 minutes at room temperature, Molecular Devices IMAP™ binding solution was added to bind phosphorylated substrate. After 30 minutes of incubation in the presence of the IMAP™ beads, the fluorescence polarization was read and the ratio was reported as mP. IC50 values for compounds and EC50 values for ATP were calculated using the Prism software from Graphpad.

[1] = Compound plasma concentrations in mice at 15 min post administration; format: in vivo, mouse; settings: mouse
Experimental: Additionally, compound concentrations were determined in the plasma and lungs of male, ovalbumin-sensitized, Balb/c mice from a murine model of asthma. Test compounds were formulated in water or 1% polysorbate 80 and dosed at 15 μmol/kg for intraperitoneal (IP) or oral (PO) administration or formulated for intratracheal (IT) administration and dosed at 5 μmol/kg, which directly targets the lungs. Following completion of the in vivo study, mice were euthanized and blood and plasma collected approximately 2.5-3 hours post administration of test compound for bronchodialator (BD) studies and 24 hours post administration for anti-inflamatory (AI) studies. Lungs were homogenized in Matrix A lysing tubes using a FastPrep 24 tissue and cell homogenizer (MP Biomedicals, Solon, Ohio). Both plasma samples and lung extracts were assayed for compound concentrations using an on-line, solid phase extraction LC/MS/MS system.

p70S6K = target: T2, p70S6K (Homo sapiens, UniProt P23443, T412E); assay: p70S6K inhibition assay (IMAP); format: biochemical
T2 construct: purchased Upstate Chemicon 14-486
T2 sequence (P23443 1-421 T412E limits assumed): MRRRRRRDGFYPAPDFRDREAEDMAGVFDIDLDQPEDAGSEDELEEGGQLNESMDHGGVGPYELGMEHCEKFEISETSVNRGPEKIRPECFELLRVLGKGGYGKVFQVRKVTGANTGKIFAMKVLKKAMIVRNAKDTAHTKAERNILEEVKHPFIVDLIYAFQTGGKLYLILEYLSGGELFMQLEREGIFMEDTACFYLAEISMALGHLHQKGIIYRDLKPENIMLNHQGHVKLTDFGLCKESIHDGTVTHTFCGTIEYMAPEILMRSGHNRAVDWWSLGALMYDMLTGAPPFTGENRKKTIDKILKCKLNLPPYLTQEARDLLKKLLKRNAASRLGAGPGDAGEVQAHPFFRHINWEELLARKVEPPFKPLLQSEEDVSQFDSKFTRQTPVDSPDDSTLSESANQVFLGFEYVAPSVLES
Experimental: Inhibition of Akt3 and p70S6K activity was determined using the IMAP™ FP Progressive Binding Kit (Molecular Devices product number R8127). […] Following the pre-incubation, 30 M ATP was added to initiate the reaction. After 60 minutes at RT, Molecular Devices IMAP™ binding solution was added to bind phosphorylated substrate. After 30 minutes of incubation in the presence of the IMAP™ beads the fluorescence polarization was read and the ratio was reported as mP. IC50 results were calculated using the Prism software from Graphpad. The Ki values were determined according to the following formula: Ki=IC50/(1+([ATP Challenge]/EC50 ATP)).

[2] = tested on: ovalbumin-sensitized mice; assay: Prevention of airway hyperreactivity development, anti-inflammatory dosing paradigm (Penh); format: in vivo, mouse; settings: intratracheal, once a day, days 27 to 30 (1.091) or 27 to 31
LPS-challenged mice = assay: LPS-induced neutrophilia and cytokine production assay; format: in vivo, mouse; settings: intratracheal administration, LPS-challenged mice
Experimental: Male BALB/c mice, approximately 19 to 21 grams, were ordered from Charles River Laboratories (Raleigh, N.C.). All animals were challenged with aerosolized LPS (10 μg/ml) for 25 minutes on study day 0. LPS aerosol was generated using an Aerogen Aeroneb nebulizer and controller providing a flow of 400 μl/min and a particle size of 2-4 μm MMAD. Rolipram was administered i.p at 20 mg/kg. […] Four hours following LPS challenge, BALF was collected using a total of 3 ml of 0.9% sodium chloride containing 10% fetal calf serum. Total cell counts were determined using the Coulter Counter. For differential evaluations, BALF was centrifuged and cytospin slides prepared and stained with Hema3 stain. Manual leukocyte counts were then completed on 200 cells. The final concentration of individual leukocyte cell types per ml of BALF was determined by multiplication of the relative percentage of individual leukocytes with the total amount of cells/ml of BALF fluid. The concentration of IL-1β in the BALF samples was determined using commercially available Bio-plex kits (Bio-Rad). The analysis of cytokine levels was measured using the Bio-Plex 200 (Bio-Rad) system according to the manufacturer's instructions.

GCK = target: T3, GCK (Homo sapiens, UniProt Q12851); assay: Kinase panel screen, GCK; format: biochemical; settings: 1 μM test compound, 10 μM ATP
T3 construct: purchased Upstate, Millipore Bioscience Division (KinaseProfiler service)
T3 sequence (Q12851 1-820): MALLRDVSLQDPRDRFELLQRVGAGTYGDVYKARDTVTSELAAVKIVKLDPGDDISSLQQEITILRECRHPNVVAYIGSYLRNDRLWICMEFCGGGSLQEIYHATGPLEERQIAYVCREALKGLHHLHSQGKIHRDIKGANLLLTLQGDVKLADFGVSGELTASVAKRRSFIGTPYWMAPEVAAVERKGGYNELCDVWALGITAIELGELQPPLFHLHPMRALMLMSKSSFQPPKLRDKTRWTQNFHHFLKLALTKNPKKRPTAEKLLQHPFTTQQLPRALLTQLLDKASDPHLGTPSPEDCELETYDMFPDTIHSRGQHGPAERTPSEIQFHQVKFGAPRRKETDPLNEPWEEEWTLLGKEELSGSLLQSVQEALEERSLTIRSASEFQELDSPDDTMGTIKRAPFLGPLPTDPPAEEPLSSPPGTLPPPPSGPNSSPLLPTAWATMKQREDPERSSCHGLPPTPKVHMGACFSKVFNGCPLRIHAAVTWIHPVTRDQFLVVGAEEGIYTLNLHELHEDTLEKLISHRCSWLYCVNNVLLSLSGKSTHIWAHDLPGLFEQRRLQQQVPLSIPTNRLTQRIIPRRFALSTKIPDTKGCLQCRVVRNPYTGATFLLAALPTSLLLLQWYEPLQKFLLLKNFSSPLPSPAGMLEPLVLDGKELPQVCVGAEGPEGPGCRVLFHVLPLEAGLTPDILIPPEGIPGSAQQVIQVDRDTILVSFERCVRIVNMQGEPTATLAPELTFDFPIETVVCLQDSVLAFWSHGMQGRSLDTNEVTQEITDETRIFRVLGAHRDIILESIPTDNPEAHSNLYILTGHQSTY
Experimental: (§1) Compounds of Formulae I and II were examined for activity against a selected panel of kinases using the KinaseProfiler™ enzyme profiling services (Upstate, Millipore Bioscience Division). Percent kinase activity at 10 μM and 1 μM test compound and 10 μM ATP was determined against 40 wild-type recombinant human kinases according to Upstate's standard protocol: ASK1, BTK, CSK, c-RAF, GCK, GSK3β, IKKα, IKKβ, IRAK1, IRAK4, JNK1α1, JNK2α2, JNK3, ERK1, ERK2, MAPKAP-K2, MAPKAP-K3, MEK1, MKK4, MKK6, MKK7β, Mnk2, MSK1, PAK3, PDK1, PRAK, ROCK1, Rsk2, SAPK2a, SAPK2b, SAPK3, SAPK4, SRPK1, SRPK2, Syk, TAK1, TBK1, PI3-Kβ, PI3-Kγ, PI3-Kδ.

Mnk2 = target: T4, Mnk2 (Homo sapiens, UniProt Q9HBH9); assay: Kinase panel screen, Mnk2; format: biochemical; settings: 10 μM ATP
T4 construct: purchased Upstate, Millipore Bioscience Division (KinaseProfiler service)
T4 sequence (Q9HBH9 whole entry): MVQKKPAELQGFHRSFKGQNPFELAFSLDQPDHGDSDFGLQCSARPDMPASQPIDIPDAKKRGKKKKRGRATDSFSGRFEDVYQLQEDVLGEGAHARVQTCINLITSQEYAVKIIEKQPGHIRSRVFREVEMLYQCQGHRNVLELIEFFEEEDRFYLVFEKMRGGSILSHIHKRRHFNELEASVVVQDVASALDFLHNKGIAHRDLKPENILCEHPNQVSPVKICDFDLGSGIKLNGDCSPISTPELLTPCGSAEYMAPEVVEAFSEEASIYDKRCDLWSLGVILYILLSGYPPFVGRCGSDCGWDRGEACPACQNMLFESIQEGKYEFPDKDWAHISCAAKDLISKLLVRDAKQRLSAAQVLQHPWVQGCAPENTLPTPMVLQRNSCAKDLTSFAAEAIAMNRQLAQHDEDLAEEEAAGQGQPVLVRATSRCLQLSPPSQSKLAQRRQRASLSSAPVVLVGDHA
Experimental: as §1

IRAK1 = target: T5, IRAK1 (Homo sapiens, UniProt P51617); assay: Kinase panel screen, IRAK1; format: biochemical; settings: 10 μM ATP
T5 construct: purchased Upstate, Millipore Bioscience Division (KinaseProfiler service)
T5 sequence (P51617 whole entry): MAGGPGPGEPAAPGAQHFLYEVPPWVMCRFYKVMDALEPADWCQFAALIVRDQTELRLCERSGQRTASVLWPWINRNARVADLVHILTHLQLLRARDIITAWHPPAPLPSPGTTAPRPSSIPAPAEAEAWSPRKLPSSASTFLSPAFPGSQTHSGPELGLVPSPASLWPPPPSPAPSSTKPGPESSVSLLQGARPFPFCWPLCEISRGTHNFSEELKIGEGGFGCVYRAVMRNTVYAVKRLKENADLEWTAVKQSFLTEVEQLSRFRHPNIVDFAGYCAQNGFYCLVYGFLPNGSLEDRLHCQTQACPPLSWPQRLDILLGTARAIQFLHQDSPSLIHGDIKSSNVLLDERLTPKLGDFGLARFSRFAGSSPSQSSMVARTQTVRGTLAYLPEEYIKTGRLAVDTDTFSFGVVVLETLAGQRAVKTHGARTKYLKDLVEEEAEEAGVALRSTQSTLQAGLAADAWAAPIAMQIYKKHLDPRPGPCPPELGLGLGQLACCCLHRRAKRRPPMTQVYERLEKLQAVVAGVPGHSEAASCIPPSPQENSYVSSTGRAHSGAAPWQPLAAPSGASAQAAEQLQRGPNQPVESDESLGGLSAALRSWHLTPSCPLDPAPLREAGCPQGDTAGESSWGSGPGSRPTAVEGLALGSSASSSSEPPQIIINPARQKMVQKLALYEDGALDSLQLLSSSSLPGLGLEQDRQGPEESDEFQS
Experimental: as §1

IRAK4 = target: T6, IRAK4 (Homo sapiens, UniProt Q9NWZ3); assay: Kinase panel screen, IRAK4; format: biochemical; settings: 10 μM ATP
T6 construct: purchased Upstate, Millipore Bioscience Division (KinaseProfiler service)
T6 sequence (Q9NWZ3 1-460): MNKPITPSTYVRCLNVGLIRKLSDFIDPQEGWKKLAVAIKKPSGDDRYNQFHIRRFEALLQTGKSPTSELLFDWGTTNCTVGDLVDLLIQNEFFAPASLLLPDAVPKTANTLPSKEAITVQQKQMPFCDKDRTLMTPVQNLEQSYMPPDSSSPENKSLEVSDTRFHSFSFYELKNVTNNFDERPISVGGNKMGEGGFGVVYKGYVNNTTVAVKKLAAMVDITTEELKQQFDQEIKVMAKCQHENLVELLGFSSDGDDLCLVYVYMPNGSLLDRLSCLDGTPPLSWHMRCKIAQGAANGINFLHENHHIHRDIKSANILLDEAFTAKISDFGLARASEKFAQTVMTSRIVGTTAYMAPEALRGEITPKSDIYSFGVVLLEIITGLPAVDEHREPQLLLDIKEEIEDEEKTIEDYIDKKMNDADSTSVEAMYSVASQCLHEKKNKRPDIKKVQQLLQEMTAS
Experimental: as §1

rat tracheal rings = assay: Tracheal relaxation assay, carbachol precontracted rings; settings: average percentage of carbachol-induced rat trachael ring contraction at 1 μM of test compound
Experimental: Trachea were excised, cleaned of connective tissue and cut into cylindrical segments of 2-3 mm length. Two stainless steel wires were guided through the lumen of the tracheal ring. One wire was fixed in the tissue bath and the other was connected to a force transducer via surgical silk. […] Indomethacin (1 μM), a cyclooxygenase inhibitor, was added to the Krebs buffer and was present throughout the experiments. Contractile tensions were measured using an isometric force transducer (Grass Instruments) and signals were analyzed using specialized software (Chart v5.5, ADInstruments). The preparations were allowed to equilibrate at a resting tension of 0.3 to 0.5 gm prior to two challenges with 60 mM KCl to assess tissue viability. After washing, tissues were treated with 1 μM carbachol for 10 to 15 minutes to induce a contractile response. Test Compounds were added cumulatively to the bath every 30 minutes and reductions in tension were recorded. Basal tension was subtracted from all values and data were reported as a percentage of the maximal carbachol-induced contraction. Data were fit to the Hill equation using GraphPad Prism v5 software.

[3] = tested on: ovalbumin-sensitized mice; assay: Bronchodilator assay in ovalbumin-sensitized mouse model of asthma (Penh); format: in vivo
Experimental: Male BALB/c mice were ordered from Charles River Laboratories (Raleigh, N.C.). The animals were approximately 19 to 21 grams at time of receipt. Upon arrival, the animals were randomized into groups of five males per cage and assigned to a dosing group. Animals were quarantined for 7 days under test conditions. They were observed daily for general health status and ability to adapt to the water bottles.
Animals were sensitized on day 0 and 14 of study by an intraperitoneal injection with 20 μg of ovalbumin (ova) and 2.0 mg aluminum hydroxide (alum) which initiates the development of a specific T-helper (Th) cells type 2 resulting in asthmatic animals. One group of animals received an injection of saline to use as non-asthmatic control animals. All animals were challenged with aerosolized 1% ova once daily for 25 minutes on days 28, 29, and 30 (Zosky, et al. Respiratory Research, 2004; 5:15). Aerosol challenge consists of using an Aerogen Aeroneb nebulizer and controller with a particle size of 4-6 μm mass median aerodynamic diameter (MMAD) with a distribution of 400 μl per minute. This aerosol challenge is necessary to target the Th2-driven allergic inflammation in the lower airways.
The test compounds and the control vehicle were administered to animals on the day of airway hyperreactivity evaluation 30 minutes to 1 hour before the evaluation to determine the bronchodilator effects of the compounds according to the bronchodilator dosing paradigm (FIG. 3A). Compounds were administered p.o. (orally), i.p. (intraperitoneally) at 15 μMol/kg unless otherwise noted (Table 4). Alternatively, compounds were administered i.t. (intratracheally) at varying doses as shown (FIG. 3B). On day 32 of the experiment, airway hyperreactivity was evaluated by placing conscious, unrestrained animals in a whole body plethysmometer (Buxco Wilmington, N.C.) and exposing them to escalating doses of nebulized methacholine, a known bronchial constrictor which acts through the muscarinic receptors of the lungs, (doses: […]-50 mg/ml). Exposure to the methacholine doses consisted of a 3 minute period during which a nebulizer was aerosolizing the methacholine and an additional 3 minute period following the cessation of nebulization. Over this 6 minute period, the plethysmometer monitors and generates numerical values for all parameters of the breath pattern. Enhanced pause (Penh), a unitless index of airway hyperreactivity, is derived from the expiratory side of the respiratory waveform measured via the plethysmograph and is used as an indirect measure of airway resistance and hyperreactivity. […] Following the methacholine dose response, all animals were anesthetized, bled and euthanized.
Within each experiment, a mouse was given a single compound and exposed to increasing doses of methacholine [0 (baseline), 0.375, 0.75, 1.5, 3, 6, 12, 25, 50 mg/ml]. The Penh value at each of the dose levels of methacholine represents the 6-minute average response. Change from baseline (CFB) in Penh was calculated at each methacholine dose and the area under the curve (AUC) for these CFB values was calculated using the trapezoidal rule. This same approach was applied for each mouse across multiple experiments.
For statistical analyses, a linear mixed-effects model where the response was the log 10 transformed value of AUC described above was used. Data from equal experimental conditions across experiments performed on different days were pooled for statistical analysis and data reporting. The various compounds were compared adjusting for the log 10-transformed baseline value of Penh and the chamber (1 of 10) of the plethysmometer each mouse was contained in during an experiment. A random intercept for each experiment was assumed to account for possible similarities of the results obtained from a given experiment (i.e., as a “blocking effect”).
For Table 4 and Table 5, Penh values are reported as log 10 transformed AUC values. […]

[4] = Rat oral pharmacokinetics (plasma); format: in vivo
Experimental: Plasma (EDTA K2 anticoagulant) was collected from male, cannulated, CD Sprague Dawley rats to determine the pharmacokinetics of formulations containing compound inhibitors of Rho kinase. Each animal was dosed orally with a 4 ml/kg solution or suspension of each test compound in 10 mM acetate buffered saline, pH 4.5 at a final concentration range of 20-30 μmol/kg. Blood was collected at 0.25, 0.5, 1, 2, 4, 6, 8, and 24 hours. Plasma samples were assayed for the concentration of the test compound using an on-line, solid phase extraction LC/MS/MS analysis system.
Samples were analyzed on a QSTAR Elite, hybrid quadrupole time-of-flight mass spectrometer (Applied Biosystems, Framingham, Mass.) coupled with a Symbiosis Pharma integrated, on-line SPE-HPLC system (Spark Holland Inc., Plainsboro, N.J.). Analyst QS 2.0 software was used for instrument control, data acquisition and processing. […] Mobile Phase A consisted of 0.1% ammonium hydroxide in water and Mobile Phase B consisted of 0.1% formic acid in acetonitrile. Pharmacokinetic analyses were performed using WinNonlin software version 5.2 (Pharsight Corporation, Mountain View, Calif.).

[5] = read-out: ROCK1 Ki, average Ki (Example 1)
[6] = Balb/c, 15 μmol/kg, mean compound plasma concentration in mice at 15 minutes post oral administration, read-out: Mouse Oral PK
[7] = mice, plasma, 15 min post administration (oral dosing), mean of n = 3 mice, read-out: Plasma Mean Concentration
[8] = IMAP FP, human enzyme, Ki=IC50/(1+([ATP Challenge]/EC50 ATP)), read-out: p70S6K Ki, Avg
[9] = average Ki (Example 31), read-out: p70S6K Ki
[10] = rat, oral, 20-30 μmol/kg, plasma, mean n = 3

T1 sequence (Q13464 17-535 limits assumed): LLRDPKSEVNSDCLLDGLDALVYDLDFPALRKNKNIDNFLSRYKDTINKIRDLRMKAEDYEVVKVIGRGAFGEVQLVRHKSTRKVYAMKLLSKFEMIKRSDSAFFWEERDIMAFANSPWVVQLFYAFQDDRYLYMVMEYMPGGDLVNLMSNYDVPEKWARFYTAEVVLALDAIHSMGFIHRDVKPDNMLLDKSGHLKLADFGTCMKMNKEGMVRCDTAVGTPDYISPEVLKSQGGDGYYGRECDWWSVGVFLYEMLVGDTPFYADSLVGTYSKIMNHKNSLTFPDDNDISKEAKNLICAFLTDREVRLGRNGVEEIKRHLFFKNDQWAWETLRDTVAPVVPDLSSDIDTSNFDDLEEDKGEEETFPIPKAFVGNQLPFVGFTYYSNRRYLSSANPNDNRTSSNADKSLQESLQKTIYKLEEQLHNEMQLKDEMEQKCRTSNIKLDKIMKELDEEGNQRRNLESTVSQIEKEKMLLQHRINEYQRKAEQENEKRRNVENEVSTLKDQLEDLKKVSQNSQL

Row | Structure (SMILES) | Prevention of airway hyperreactivity [2] | percent inhibition at 1 µM (GCK) [%] | Percent inhibition, Mnk2 (Mnk2; 1 μM test compound) [%] | Percent inhibition, Mnk2 (Mnk2; 10 μM test compound) [%] | Percent inhibition, IRAK1 (IRAK1; 1 μM test compound) [%] | Percent inhibition, IRAK1 (IRAK1; 10 μM test compound) [%] | Percent inhibition, IRAK4 (IRAK4; 1 μM test compound) [%] | Percent inhibition, IRAK4 (IRAK4; 10 μM test compound) [%] | further results
1 | Cc1ccc(CN2CCC[C@H](Nc3ccc4[nH]ncc4c3)C2)cc1NS(=O)(=O)N(C)C [Compound 1.237] |  |  |  |  |  |  |  |  | Ki (ROCK1): 287 nM; Ki (ROCK1; [5]): 287 nM; concentration at 15 min [1, 6]: 178 nM; concentration at 15 min [1, 7]: 178 nM; Ki (p70S6K; [8]): 9.87 µM; Ki (p70S6K; [9]): 9.87 µM
2 | NC(=O)Cn1ccc2cc(CN3CC[C@@H](Nc4cccc5cnccc45)C3)ccc21 [Compound 2.059] | prevention of airway hyperreactivity | 75 | 49 | 12 | 87 | 30 | 63 | 22 | IL-1β levels in BALF (LPS-challenged mice): reduction
3 | Cc1ccc(CN2CCC[C@@H](Nc3ccc4[nH]ncc4c3)C2)cc1OCCO [Compound 1.161] | prevention of airway hyperreactivity | 96 | 108 | 106 | 106 | 99 | 96 | 109 | 
4 | Cc1ccc(CN2CCC[C@@H](Nc3ccc4[nH]ncc4c3)C2)cc1NS(=O)(=O)N(C)C [Compound 1.262] |  |  |  |  |  |  |  |  | Ki (ROCK1): 54.9 nM; Ki (ROCK1; [5]): 54.9 nM; concentration at 15 min [1, 6]: 285 nM; concentration at 15 min [1, 7]: 285 nM; Ki (p70S6K; [8]): 5.44 µM; Ki (p70S6K; [9]): 5.44 µM
5 | OCCn1ccc2cc(CN3CC[C@@H](Nc4cccc5cnccc45)C3)ccc21 [Compound 2.066] | prevention of airway hyperreactivity | 39 | 99 | 54 | 74 | 32 |  |  | 
6 | CCc1ccc(CN2CCC[C@@H](Nc3ccc4[nH]ncc4c3)C2)cc1 [Compound 1.136] |  |  |  |  |  |  |  |  | Trachael Ring Contraction (rat tracheal rings): 45%; Reduction in airway hyperresponsiveness ([3]; i.p. route of administration, compared to oral dosing): enhanced reduction; Reduction in airway hyperresponsivness ([3]; oral doses): did not yield a significant reduction; Oral bioavailability ([4]; oral dosing): poor; AUC (0-last) [4, 10]: below the level of quantification; Cmax [4, 10]: below the level of quantification
7 | NC(=O)Cn1ccc2cc(CN3CCC[C@@H](Nc4ccc5[nH]ncc5c4)C3)ccc21 [Compound 1.162] |  | 93 | 111 | 65 | 100 | 97 | 105 | 88 | 

— US8299096B2, “Method for treating pulmonary diseases using rho kinase inhibitor compounds” (priority 2008, dated 2012)
